Test results from patent US20060194800A1, “Pteridine derivatives as nitric oxide synthase activators” (University of Strathclyde, priority 2005, published 2006).

Assays:
eNOS [1] = experiment: eNOS immunostaining in endothelium of small pulmonary arteries of treated rats; format: in vivo, rat; settings: 14.1 mg/kg/day s.c.
Method: Rats were maintained in a chamber containing atmospheric air at 550 mbar for 14 days. […] A group of normotensive and a group of pulmonary hypertensive rats received daily subcutaneous injections of WSG1002 in a dose of 14.1 mg/kg/day during the time that they were in the hypoxic chamber. Other groups of normotensive and pulmonary hypertensive rats had no drugs and are used as control comparison groups. These studies used lungs from the four groups of rats (1) pulmonary hypertensive and treated with WSG1002, (2) normotensive and treated with WSG1002, (3) pulmonary hypertensive and not treated with WSG1002 (4) normotensive and not treated with WSG1002. The rat lungs were fixed with 4% formaldehyde, wax embedded, and 3 μm thick sections were cut. The sections were mounted on silanated slides, rehydrated and treated with 0.3% H2O2 to block endogenous peroxidase activity. Antigens were unmasked by treatment in a microwave oven. […] In the endothelium, the intensity of staining was quantified on a scale of 0-3, where 0=no staining or the same as the negative control, 1=faint staining or staining in a few target cells, 2=moderate staining in most target cells, 3=the maximum staining observed with that antibody in the positive control slides.

eNOS [2] = target: T1, eNOS (Sus scrofa, UniProt Q28969); experiment: Endothelial cell assay, nitric oxide (NO2+NO3) production; format: cell-based, porcine; settings: 30 μM in DMSO, seven days, DAHP-depleted endothelial cells
T1 construct: endothelial cells that produce eNOS; endogenous in cells; host or cells: primary porcine pulmonary artery endothelial cells
T1 sequence (Q28969 2-1205 limits assumed): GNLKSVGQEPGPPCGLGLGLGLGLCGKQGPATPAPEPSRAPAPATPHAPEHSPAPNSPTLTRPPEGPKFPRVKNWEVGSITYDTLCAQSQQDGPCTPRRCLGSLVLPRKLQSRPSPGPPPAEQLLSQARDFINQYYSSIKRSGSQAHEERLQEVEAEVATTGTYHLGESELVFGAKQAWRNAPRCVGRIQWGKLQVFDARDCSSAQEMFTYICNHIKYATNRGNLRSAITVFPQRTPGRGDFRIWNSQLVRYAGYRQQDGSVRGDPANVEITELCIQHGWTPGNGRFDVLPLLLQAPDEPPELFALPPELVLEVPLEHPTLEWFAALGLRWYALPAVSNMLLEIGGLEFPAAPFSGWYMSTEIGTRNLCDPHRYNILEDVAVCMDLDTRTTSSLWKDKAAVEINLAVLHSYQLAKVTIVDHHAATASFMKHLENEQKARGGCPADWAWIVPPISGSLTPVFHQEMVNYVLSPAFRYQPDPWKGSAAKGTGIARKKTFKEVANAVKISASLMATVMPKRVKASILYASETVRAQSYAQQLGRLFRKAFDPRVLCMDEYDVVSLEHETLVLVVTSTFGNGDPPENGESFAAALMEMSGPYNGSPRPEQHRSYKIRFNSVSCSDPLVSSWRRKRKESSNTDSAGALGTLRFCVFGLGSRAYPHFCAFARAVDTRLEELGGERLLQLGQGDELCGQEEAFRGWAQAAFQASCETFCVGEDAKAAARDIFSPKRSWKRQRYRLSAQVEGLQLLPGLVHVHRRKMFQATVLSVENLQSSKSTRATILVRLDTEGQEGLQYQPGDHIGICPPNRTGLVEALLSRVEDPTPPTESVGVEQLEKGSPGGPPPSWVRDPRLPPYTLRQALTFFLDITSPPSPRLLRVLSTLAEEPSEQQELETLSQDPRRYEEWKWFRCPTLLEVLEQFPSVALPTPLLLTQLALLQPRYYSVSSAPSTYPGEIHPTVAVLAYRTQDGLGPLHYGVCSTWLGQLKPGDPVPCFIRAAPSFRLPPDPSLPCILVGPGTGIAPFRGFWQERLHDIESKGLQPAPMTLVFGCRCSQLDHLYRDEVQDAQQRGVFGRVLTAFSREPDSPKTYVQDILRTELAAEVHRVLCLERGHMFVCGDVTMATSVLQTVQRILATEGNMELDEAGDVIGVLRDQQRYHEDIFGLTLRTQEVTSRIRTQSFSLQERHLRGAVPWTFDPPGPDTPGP
Method: The arterial assay is sensitive but slow to perform, and therefore a wider range of compounds was investigated in whole cell preparations. Tests have been carried out using endothelial cells that produce eNOS and stimulated macrophages that produce iNOS. Endothelial cells were isolated from porcine pulmonary artery and grown to confluency in T75 flasks. Subsequently, the cells were seeded into 6-well plates. At confluency, the medium (1 ml/well) was changed and the relevant treatment introduced to all wells in each plate (one treatment/plate). The cells were incubated for a further 7-day period and the experiment was terminated. The media from the wells of respective plates was combined (˜6 mls) and evaporated to approximately 500 μl (˜10-fold). A 50 μl aliquot was removed and any NO3 was converted to NO2 using the NO3 conversion method (Calbiochem Cat No 482702). These treated samples were then assayed using the Greiss reaction as described above giving the content of the combination of (NO2+NO3). WSG1002, as a representative compound, was incubated with a preparation of endothelial cells over seven days in order to accumulate sufficient nitric oxide for assay as described above. Controls included vehicle (0.5% DMSO) and L-NAME (an established NOS inhibitor). WSG1002 caused a doubling of nitric oxide compared with vehicle control.

- nitric oxide production compared with vehicle control (eNOS [2]): doubling
SMILES: CC(=O)C1=Nc2c(nc(N)[nH]c2=O)NC1(C)C [wsg1002, 6-Acetyl-2-amino-7,7-dimethyl-7,8-dihydro-3H-pteridin-4-one]
- eNOS staining in small pulmonary artery endothelium (eNOS [1]; normotensive rats): increased staining for eNOS
- eNOS staining in small pulmonary artery endothelium (eNOS [1]; pulmonary hypertensive rats vs treated normotensive): no further increase
